Measured values as given in patent US5441949A, “Carbapenem antibiotic compounds” (Zeneca Limited, priority 1992, dated 1995).
Counter-ions that a name gives are not always drawn.

Experiments:
E. coli DCO = assay: microbe, parasite or virus in culture; conditions: Escherichia coli
Description: The antibacterial activity is described in terms of the minimum inhibitory concentration (MIC) determined by the agar-dilution technique with an inoculum size of 10^4 CFU/spot.

S. aureus Oxford = assay: antibacterial activity in vitro, agar-dilution MIC, Diagnostic Sensitivity Test, inoculum 10^4 CFU/spot; type: cell-based; conditions: Staphylococcus aureus
P. morganii I + 001 = assay: as above; type: cell-based; conditions: Morganella morganii
[1] = test system: Enterobacter cloacae P99-; assay: as above; type: cell-based
B. fragilis AMP S = assay: as above; type: cell-based; conditions: Bacteroides fragilis

C[C@@H](O)[C@H]1C(=O)N2C(C(=O)O)=C(S[C@@H]3CN[C@H](C(=O)Nc4cc(C(=O)O)c5ncccc5c4)C3)[C@H](C)[C@H]12 [Example 1, (1R,5S,6S,8R,2'S,4'S) 2-(2-(8-Carboxyquinol-6-ylcarbamoyl)pyrrolidin-4-ylthio)-6-(1-hydroxyethyl)-1-methylcarbapenem-3-carboxylic Acid Disodium Salt]
MIC (E. coli DCO): 0.03 µg/mL
MIC (S. aureus Oxford): 0.13 µg/mL
MIC (P. morganii I + 001): 0.03 µg/mL
MIC [1]: 0.03 µg/mL
MIC (B. fragilis AMP S): 0.5 µg/mL
